Source: patent US6348609B1, “Method for obtaining an oil that is rich in hydroxyoctadecadienoic fatty acids (HODE) or the esters thereof from a mixture containing linoleic acid or the esters thereof” (Laboratoires Arkopharma, priority 1999, dated 2002)

What was measured:
human adipocytes = assay: production of cAMP in human adipocytes (lipolysis activation); format: cell-based
Excerpt: The aim of this study is to study the effect of 9-HODE on the production of cAMP (cyclic adenosine monophosphate) which is a lipolysis activator, in human adipocytes. The effect of 9-HODE is studied relative to that of adrenaline and caffeine which are two molecules that are known for their lipolysis-stimulating effects.

[1] = skin penetration in vitro on human skin with Franz cells; format: in vitro ADME
Description: A study of skin penetration is carried out in vitro on human skin with Franz cells. These cells comprise a surface area of human skin of 1.76 cm^2 on which is placed 800 μg of 9-HODE. After 6 hours of contact, an assay of the 9-HODE is carried out by gas chromatography at the surface of the human skin sample, in the epidermis, in the dermis and in the receiving phase.

[2] = 9-HODE 10^−4 M, human adipocytes
[3] = 800 μg on 1.76 cm^2 human skin, after 6 hours of contact

SMILES	concentration of cAMP, times greater than that obtained with caffeine (human adipocytes; 9-HODE 10^−3 M, human adipocytes) [times]	increase in cAMP relative to adrenaline (human adipocytes; [2])	increase in cAMP relative to caffeine (human adipocytes; [2])	concentration of cAMP (human adipocytes; 9-HODE concentration of 10^−3 M, human adipocytes)	conclusion on lipolysis activation in vitro (human adipocytes; in vitro, by stimulating production of cAMP by adipocytes)	9-HODE assayed at the surface of the skin [1, 3] [%]	9-HODE assayed in the dermis [1, 3] [%]	9-HODE assayed in the epidermis [1, 3] [%]	9-HODE assayed in the receiving phase [1, 3] [%]	skin-penetrating power ([1]; human skin, Franz cells)	concentration of cAMP (human adipocytes; caffeine comparator, concentration not given, human adipocytes)
CCCCCC=CC=CC(O)CCCCCCCC(=O)O (centres unmarked) [9-HODE, 9-hydroxy-10,12-octadecadienoic acid]	10	greater than that obtained, irrespective of the concentration, by adrenaline	equivalent to that of caffeine 10^−3 M	7.940 femtomol of cAMP/million adipocytes	powerful lipolysis activator	33	32	11	24	high skin-penetrating power	–
Cn1c(=O)c2c(ncn2C)n(C)c1=O [caffeine, reference compound]	–	–	–	–	–	–	–	–	–	–	799 femtomol of cAMP/million adipocytes
